Patent publication US4214093A, “Amino- or guanidino-1,2,3,4-tetrahydro-1-naphthoic esters” (Torii & Co., Ltd., priority 1977, dated 1980)

How the values were obtained:
[1] = target: Bovine Thrombin (Bos taurus, UniProt P00735); test: Inhibitory effect on ester-hydrolyzing activity of bovine thrombin (TAMe substrate); format: biochemical
Protocol: The enzyme-inhibitory activities in vitro of the compounds of this invention were measured by the following procedure according to the method of M. Muramatsu et al. [M. Muramatsu, T. Onishi, S. Makino, Y. Hayashi and S. Fujii: J. Biochem., 58, 214 (1965)]
To 0.1 ml of trypsin (5 μg/ml) were added 0.5 ml of 0.1 M borate buffer solution (pH 8.6) containing 10 mM CaCl2, and 0.1 ml of a varying concentration of an inhibitor solution, and preincubation was carried out at 37° C. for 5 minutes. Then, 10 μmoles of the substrate, TAMe (tosylarginine methyl ester), was added, and incubation was preformed at 37° C. for 30 minutes.
After the incubation, 1.5 ml of 2 M alkaline hydroxylamine was added and thoroughly mixed, and allowed to stand at room temperature for 15 minutes. Then, 1.0 ml of each of 18% trichloroacetic acid, 4 N HCl and 10% FeCl3 was added and thoroughly mixed. If necessary, the mixture was centrifuged at 3,000 rpm for 10 minutes, and the absorbance of the supernatant was measured at 530 nm.
It was measured by using 0.4 ml of bovine thrombin […], 0.02 M sodium phosphate buffer solution (pH 7.4) and TAMe as substrate following the method described in (1).

[2] = target: T1, Human Cl Esterase (Homo sapiens, UniProt P09871); test: Inhibitory effect on ester-hydrolyzing activity of human Cl esterase (ATEe substrate); format: biochemical; settings: in vitro, ATEe, pH 7.4; Table 4 bracketed value; read-out: Cl-esterase ID50
T1 sequence (P09871 438-688 limits assumed): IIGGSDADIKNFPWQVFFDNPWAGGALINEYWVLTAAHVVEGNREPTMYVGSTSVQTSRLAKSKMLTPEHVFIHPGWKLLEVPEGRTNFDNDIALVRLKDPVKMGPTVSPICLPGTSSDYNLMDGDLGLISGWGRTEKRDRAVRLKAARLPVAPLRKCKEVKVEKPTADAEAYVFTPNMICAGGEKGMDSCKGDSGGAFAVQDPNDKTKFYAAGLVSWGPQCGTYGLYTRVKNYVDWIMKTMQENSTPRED
T1 sequence (P09871 16-437 partner limits assumed): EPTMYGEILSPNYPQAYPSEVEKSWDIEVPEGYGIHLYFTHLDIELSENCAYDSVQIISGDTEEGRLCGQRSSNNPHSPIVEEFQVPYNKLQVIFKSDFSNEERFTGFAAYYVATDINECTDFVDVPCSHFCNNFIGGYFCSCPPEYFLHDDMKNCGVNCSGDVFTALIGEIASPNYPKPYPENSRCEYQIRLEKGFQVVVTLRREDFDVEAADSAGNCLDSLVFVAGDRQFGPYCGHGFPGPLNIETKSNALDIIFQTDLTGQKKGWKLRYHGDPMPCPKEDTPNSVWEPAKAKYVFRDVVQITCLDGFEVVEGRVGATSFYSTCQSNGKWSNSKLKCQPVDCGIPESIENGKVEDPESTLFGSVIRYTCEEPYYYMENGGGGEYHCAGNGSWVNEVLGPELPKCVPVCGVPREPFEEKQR
Protocol: It was measured by using 0.1 ml of Cl esterase, 0.1 ml of 0.02 M sodium phosphate buffer solution (pH 7.4 ) and 10 μmoles of ATEe (acetyltyrosine ethyl ester) as substrate following the method described in (1).

[3] = Acute toxicity (LD50) by intraperitoneal administration in mice; settings: mouse, in vivo, ip
[4] = target: Human Plasmin (Homo sapiens, UniProt P00747); test: Inhibitory effect on ester-hydrolyzing activity of human plasmin (TAMe substrate); format: biochemical; settings: in vitro, TAMe; for IC50: Table 4 bracketed value, read-out: Plasmin ID50
Chain of Human Plasmin (P00747 581-810 limits assumed): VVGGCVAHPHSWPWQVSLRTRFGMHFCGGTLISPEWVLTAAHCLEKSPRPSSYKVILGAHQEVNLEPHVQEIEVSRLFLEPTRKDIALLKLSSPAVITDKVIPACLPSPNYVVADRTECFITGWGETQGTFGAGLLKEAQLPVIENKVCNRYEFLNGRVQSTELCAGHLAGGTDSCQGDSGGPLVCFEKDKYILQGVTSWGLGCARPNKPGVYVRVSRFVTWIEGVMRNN
Chain of Human Plasmin (P00747 97-580 partner limits assumed): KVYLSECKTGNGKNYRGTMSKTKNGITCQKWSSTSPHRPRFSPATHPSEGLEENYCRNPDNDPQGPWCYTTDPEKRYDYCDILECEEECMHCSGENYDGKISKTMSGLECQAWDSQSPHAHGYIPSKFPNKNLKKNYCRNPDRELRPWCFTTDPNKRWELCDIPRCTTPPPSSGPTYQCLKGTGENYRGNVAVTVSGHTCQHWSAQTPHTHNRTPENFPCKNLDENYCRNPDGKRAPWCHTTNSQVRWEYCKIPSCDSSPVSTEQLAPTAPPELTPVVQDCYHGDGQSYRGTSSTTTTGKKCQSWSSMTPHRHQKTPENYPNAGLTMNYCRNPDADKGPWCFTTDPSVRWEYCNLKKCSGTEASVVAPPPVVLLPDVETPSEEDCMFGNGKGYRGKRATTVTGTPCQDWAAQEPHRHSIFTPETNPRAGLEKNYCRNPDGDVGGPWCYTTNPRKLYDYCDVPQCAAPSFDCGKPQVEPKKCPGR
Protocol: The enzyme-inhibitory activities in vitro of the compounds of this invention were measured by the following procedure according to the method of M. Muramatsu et al. [[…]. […] After the incubation, 1.5 ml of 2 M alkaline hydroxylamine was added and thoroughly mixed, and allowed to stand at room temperature for 15 minutes. […] It was measured by using 0.1 ml of plasmin (generated by activation of plasminogen with streptokinase) and TAMe as substrate following the method described in (1).

[5] = target: Human Plasma Kallikrein (Homo sapiens, UniProt P03952); test: Inhibitory effect on ester-hydrolyzing activity of human plasma kallikrein (TAMe substrate); format: biochemical; settings: in vitro, TAMe
Chain of Human Plasma Kallikrein (P03952 391-638 limits assumed): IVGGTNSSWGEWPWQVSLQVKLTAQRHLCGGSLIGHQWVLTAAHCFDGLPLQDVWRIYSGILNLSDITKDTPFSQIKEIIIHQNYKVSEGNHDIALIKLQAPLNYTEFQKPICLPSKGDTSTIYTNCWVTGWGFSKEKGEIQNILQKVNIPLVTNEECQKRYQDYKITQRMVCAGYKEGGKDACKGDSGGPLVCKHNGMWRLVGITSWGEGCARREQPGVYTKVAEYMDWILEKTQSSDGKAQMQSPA
Chain of Human Plasma Kallikrein (P03952 20-390 partner limits assumed): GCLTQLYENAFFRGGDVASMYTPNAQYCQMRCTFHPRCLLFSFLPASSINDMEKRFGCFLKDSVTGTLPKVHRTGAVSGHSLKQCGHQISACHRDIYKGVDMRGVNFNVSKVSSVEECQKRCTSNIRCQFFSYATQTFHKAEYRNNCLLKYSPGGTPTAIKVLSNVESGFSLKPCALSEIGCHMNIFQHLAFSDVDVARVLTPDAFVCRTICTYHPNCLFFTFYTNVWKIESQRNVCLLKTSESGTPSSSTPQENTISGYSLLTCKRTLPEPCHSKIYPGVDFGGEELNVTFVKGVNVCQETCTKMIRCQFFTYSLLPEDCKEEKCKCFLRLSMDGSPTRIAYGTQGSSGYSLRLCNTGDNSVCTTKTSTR
Protocol: (§1) The enzyme-inhibitory activities in vitro of the compounds of this invention were measured by the following procedure according to the method of M. Muramatsu et al. [[…]. […] After the incubation, 1.5 ml of 2 M alkaline hydroxylamine was added and thoroughly mixed, and allowed to stand at room temperature for 15 minutes.

[6] = target: T2, Trypsin (Bos taurus, UniProt P00760); test: Inhibitory effect on ester-hydrolyzing activity of trypsin (TAMe substrate); format: biochemical; settings: in vitro, TAMe; for IC50: pH 8.6, 37° C., Table 4 bracketed value, read-out: Trypsin ID50
T2 sequence (P00760 24-246): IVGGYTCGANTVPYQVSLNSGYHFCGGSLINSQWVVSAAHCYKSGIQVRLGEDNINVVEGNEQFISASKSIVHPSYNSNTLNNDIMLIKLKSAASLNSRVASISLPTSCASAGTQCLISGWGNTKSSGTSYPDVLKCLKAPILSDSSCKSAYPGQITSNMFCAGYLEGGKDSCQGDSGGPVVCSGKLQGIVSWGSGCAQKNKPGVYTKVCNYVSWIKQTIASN
Protocol: as §1

[7] = tested on: thrombin; test: Inhibitory activity on thrombus formation: protection from lethal thrombin injection in mice; format: in vivo, mice (ddY strain); settings: 10 minutes before thrombin 300 NIH units/kg i.v., No. 91 in 2.5% gum arabic
Protocol: White male mice (ddY strain), 4 weeks age and weighing 18-27 g, were used throughout the experiments. […] The intravenous injection of 300 NIH units/kg of thrombin over 30 seconds into mice was lethal to all animals. The compounds were intraperitoneally administered in doses of 1, 10, and 100 mg/kg in saline unless otherwise described.
Compounds were intraperitoneally administered 10 minutes before thrombin injection. Compound No. 91 was dissolved in 2.5% gum arabic.

[8] = tested on: clotting activity of thrombin; test: Inhibitory activity on plasma clotting (rabbit platelet poor plasma, thrombin-induced); format: biochemical
Protocol: Blood was drawn from carotid artery of an ether anesthetized rabbit with 1/10 volume of 3.8% sodium citrate. Platelet poor plasma (PPP) was prepared from citrated blood which was centrifuged at 3,000 r.p.m. for 15 minutes at 4° C. PPP, 0.9 ml, was taken into cell, 10μ of a compound solution was added and incubated at 37° C. for 10 minutes. […] Compounds were dissolved in distilled water or 50% dimethyl sulfoxide (0.5% final concentration).

Row | SMILES | IC50 [2] | LD50 [3] | IC50 [1] | % protective ([7]; 1 mg/kg i.p.) | Survived / Tested ([7]; 1 mg/kg i.p.) | % protective ([7]; 10 mg/kg i.p.) | Survived / Tested ([7]; 10 mg/kg i.p.) | % protective ([7]; 100 mg/kg i.p.) | Survived / Tested ([7]; 100 mg/kg i.p.) | IC50 [4] | IC50 [6] | also measured
1 | N=C(N)Nc1cccc2c1CCCC2C(=O)Oc1ccc(Cl)cc1 (centres unmarked) [Compound 111] | 680 µM | 333 mg/kg | – | – | – | – | – | – | – | – | – | inhibition at 1000 µM ([1]; at 10^-3 M, in vitro, TAMe, read-out: Thrombin percent inhibition): 18.6%; inhibition at 1000 µM ([4]; at 10^-3 M, read-out: Plasmin percent inhibition): < 3.2%; inhibition at 1000 µM ([5]; at 10^-3 M, read-out: Kallikrein percent inhibition): < 3.2%; inhibition at 1000 µM ([6]; at 10^-3 M, read-out: Trypsin percent inhibition): 19%
2 | COC(=O)c1ccc(OC(=O)C2CCCc3c(NC(=N)N)cccc32)cc1 (centres unmarked) [Compound 118] | 780 µM | 192 mg/kg | 80 µM | 20% | 2/10 | 30% | 3/10 | 40% | 4/10 | 1000 µM | 1000 µM | –
3 | COC(=O)c1ccc(OC(=O)C2CCCc3ccc(NC(=N)N)cc32)cc1 (centres unmarked) [Compound 144] | 310 µM | 192 mg/kg | 19 µM | – | – | – | – | – | – | 45 µM | 14 µM | Percent inhibition of clotting activity ([8]; 3 × 10^-4 M, DMSO control): 57.3%; Percent inhibition of clotting activity ([8]; 3 × 10^-5 M, DMSO control): 1.7%; Percent inhibition of clotting activity ([8]; 10^-3 M, DMSO control): 98.1%; Percent inhibition of clotting activity ([8]; 10^-4 M, DMSO control): 58.0%; Percent inhibition of clotting activity ([8]; 10^-5 M, DMSO control): -3.6%
4 | CCOC(=O)c1ccc(OC(=O)C2CCCc3ccc(NC(=N)N)cc32)cc1 (centres unmarked) [Compound 148] | 260 µM | 92 mg/kg | 6 µM | 0% | 0/10 | 30% | 3/10 | 90% | 9/10 | 140 µM | 150 µM | Percent inhibition of clotting activity ([8]; 3 × 10^-4 M, H2O control): 55.6%; Percent inhibition of clotting activity ([8]; 3 × 10^-5 M, H2O control): 20.0%; Percent inhibition of clotting activity ([8]; 10^-3 M, H2O control): 100%; Percent inhibition of clotting activity ([8]; 10^-4 M, H2O control): 6.7%; Percent inhibition of clotting activity ([8]; 10^-5 M, H2O control): -2.2%; IC50 ([5]; Table 4 bracketed value, read-out: Kallikrein ID50): 170 µM
